Measurements published in ChEMBL document CHEMBL1151564, “Arylacetamide kappa-selective opioid ligands” (Bioorg Med Chem Lett, 1997).

Tests used:
[1] = molecular target: Kappa-type opioid receptor (Cavia porcellus, UniProt P41144); assay: Compound was evaluated for the inhibition of Opioid receptor kappa1 binding to guinea pig brain membranes, using 1 nM [3H]- U69,593 as radioligand
Mu-type opioid receptor = Mu-type opioid receptor (Cavia porcellus, UniProt P97266); assay: Compound was evaluated for the inhibition of Opioid receptor mu 1 binding to guinea pig brain membranes, using [3H]- DAMGO as radioligand
[2] = Total binding was evaluated by Phycoerythrin fluorescent labeling of R1EGO mouse thymoma cells; assay type: functional
[3] = Percent specific binding was evaluated by Phycoerythrin fluorescent labeling of R1EGO mouse thymoma cells; assay type: functional
[4] = Nonspecific binding was evaluated by Phycoerythrin fluorescent labeling of R1EGO mouse thymoma cells; assay type: functional
[5] = Specific binding was evaluated by Phycoerythrin fluorescent labeling of R1EGO mouse thymoma cells; assay type: functional

Chain of Kappa-type opioid receptor (P41144 whole entry): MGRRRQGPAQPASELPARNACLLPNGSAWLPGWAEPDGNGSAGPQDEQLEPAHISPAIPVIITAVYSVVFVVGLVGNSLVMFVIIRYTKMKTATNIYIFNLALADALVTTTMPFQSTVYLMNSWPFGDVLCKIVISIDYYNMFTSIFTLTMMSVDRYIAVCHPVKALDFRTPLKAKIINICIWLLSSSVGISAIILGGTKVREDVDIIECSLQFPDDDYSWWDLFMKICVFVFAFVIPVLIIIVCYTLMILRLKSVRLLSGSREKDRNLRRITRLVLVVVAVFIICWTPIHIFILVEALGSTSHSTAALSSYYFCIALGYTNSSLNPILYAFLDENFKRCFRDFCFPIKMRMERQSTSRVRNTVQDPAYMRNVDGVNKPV
Chain of Mu-type opioid receptor (P97266 whole entry): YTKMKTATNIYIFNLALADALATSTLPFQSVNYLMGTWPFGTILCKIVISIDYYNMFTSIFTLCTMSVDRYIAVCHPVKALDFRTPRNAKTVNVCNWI

SMILES	Ki [1]	Ki (Mu-type opioid receptor)	Total binding [2]	Binding [3]	Non-specific binding [4]	Specific binding [5]
CN(C(=O)Cc1ccc(Cl)c(Cl)c1)C(CN1CCCC1)c1cccc(N/C(S)=N/c2ccc(-c3c4ccc(=O)cc-4oc4cc(O)ccc34)c(C(=O)O)c2)c1 (stereo unspecified)	8.2 nM	176 nM				
CN(C(=O)Cc1ccc(Cl)c(Cl)c1)[C@H](CN1CCCC1)c1cccc(N/C(S)=N/c2ccc(-c3c4ccc(=O)cc-4oc4cc(O)ccc34)c(C(=O)O)c2)c1	1.4 nM	98 nM	64	91%	7	57
CN(C(=O)Cc1ccc(Cl)c(Cl)c1)[C@@H](CN1CCCC1)c1cccc(N/C(S)=N/c2ccc(-c3c4ccc(=O)cc-4oc4cc(O)ccc34)c(C(=O)O)c2)c1	139 nM	1190 nM	12		-5	
CC(=O)Nc1cccc([C@H](CN2CCCC2)N(C)C(=O)Cc2ccc(Cl)c(Cl)c2)c1	17.5 nM	1040 nM				
CC(=O)Nc1cccc([C@@H](CN2CCCC2)N(C)C(=O)Cc2ccc(Cl)c(Cl)c2)c1	0.0855 nM	8.37 nM				
